Data on 47 substances can be found in patent publication US9597407B2, “Targeted antimicrobial moieties” (C3 Jian, Inc., priority 2009, dated 2017).

Entries after “also recorded” stand apart in the source; their conditions may differ. Square brackets hold non-standard residues; d marks the D form. Ends that are not written are not given here. dOrn = NCCC[C@@H](N)C(=O)O; Orn = NCCC[C@H](N)C(=O)O; Aib = CC(C)(N)C(=O)O

One test concerns bacteria. Description: Binding of targeting peptides to microorganisms (Table 3). To be noted: microorganism the targeting peptide binds; binding in aqueous buffers that varied with peptide solubility, preferably 1x PBS.
As for “PF-S024 (SKRGRKRKDRRKKKANHGKRPNS; Peptide with targeting and/or antimicrobial activity)”, the “Target(s)” value was “Corynebacteria”.
As for “Py Pf 12 ([dS]KG[Orn][dS]SGK[dOrn]ES; bridge (positions not given here); not fully specified (bridges))”, the “Target(s)” value is on record as “P. fluorescens”.
In the case of “TT-305 (ARNALNMRDVPVDAAIIGIIDGMDEE; Peptide with targeting and/or antimicrobial activity)”, the “Target(s)” value is recorded as “F. nucleatum”.
As for “TT-306 (KILNEAEGKLLKVIEKNGEIDIEEI; Peptide with targeting and/or antimicrobial activity)”, the “Target(s)” value is given as “F. nucleatum”.

Still in this test, the particulars now being: peptide binding in aqueous buffers that varied depending on peptide solubility; preferably 1x PBS.
For the substance “PF-780 (AVYDALVALAAAEHRAELATRDARAKDTYEKIGVHVVVAA; Peptide with targeting and/or antimicrobial activity)”, the “Target(s) (microorganism bound by the targeting peptide)” value is “Mycobacteria spp”.
On the same count and under the same terms, with “PF-781 (PLVVVNHRRAERSRG; Peptide with targeting and/or antimicrobial activity)” the entry was “Mycobacteria spp”.
“PF-782 (TGPRRGIDLTSNRALSEVLDEGLELNSRK; Peptide with targeting and/or antimicrobial activity)”: the “Target(s) (microorganism bound by the targeting peptide)” value was “Mycobacteria spp”.
Still for that read-out and setting: the entry for “PF-783 (FTSEVRGVFTYRVNKAGLITNMRGYWNLDMMTFGNQE; Peptide with targeting and/or antimicrobial activity)” is “Mycobacteria spp”.
Consider “PF-784 (MAMTTVDNIVGLVIAVALMAFLFAALLFPEKF; Peptide with targeting and/or antimicrobial activity)”, for which the “Target(s) (microorganism bound by the targeting peptide)” value is “Mycobacteria spp”.
For the substance “PF-785 (MRPQHSPAGKAFVVKKITHEQS; Peptide with targeting and/or antimicrobial activity)”, the “Target(s) (microorganism bound by the targeting peptide)” value is listed as “Mycobacteria spp”.
With “PF-786 (LSERERRRLKRGII; Peptide with targeting and/or antimicrobial activity)”, the “Target(s) (microorganism bound by the targeting peptide)” value is “Mycobacteria spp”.
Consider “PF-787 (MTERQRRALLKQHPEVVSWSDYLEKRKRRTGTAG; Peptide with targeting and/or antimicrobial activity)”, for which the “Target(s) (microorganism bound by the targeting peptide)” value is “Mycobacteria spp”.
Same read-out and setting: with “PF-788 (GLITVFAGTARILQLRRAAKKTHAAALR; Peptide with targeting and/or antimicrobial activity)” the entry was “Mycobacteria spp”.
Same read-out and setting: the entry for “PF-789 (PRGAQSGHG; Peptide with targeting and/or antimicrobial activity)” is “Mycobacteria spp”; for “PF-790 (PAGPDHLDQRDHR; Peptide with targeting and/or antimicrobial activity)” it is “Mycobacteria spp”; for “PF-791 (IFLTTQNTDYSEHNAA; Peptide with targeting and/or antimicrobial activity)” it is “S. mutans”.
For “PF-792 (ALHASGIQAI; Peptide with targeting and/or antimicrobial activity)”, the “Target(s) (microorganism bound by the targeting peptide)” value is “S. mutans”.
On the same count and under the same terms, with “PF-793 (YTQ[Aib]NNASAYAMLLTNKDTVP; ends and bridges not checked)” the entry was “S. mutans”; with “PF-794 (NLYFENQGN; Peptide with targeting and/or antimicrobial activity)”, “S. mutans”.
The same measure, in the same setting: the entry for “PF-795 (ALHKSGIQVIADWVPDQIYN; Peptide with targeting and/or antimicrobial activity)” is “S. mutans”; for “PF-796 (YTQSNIPTAYALMLSNKDSI; Peptide with targeting and/or antimicrobial activity)” it is “S. mutans”; for “PF-797 (WYYFDNNGYM; Peptide with targeting and/or antimicrobial activity)” it is “S. mutans”.
On the same count and under the same terms, the entry for “PF-798 (ALHSKGIKVMADWVPDQMYA; Peptide with targeting and/or antimicrobial activity)” is “S. mutans”.
On to “PF-799 (YTHYNTALSYALLLTNKSSVP; Peptide with targeting and/or antimicrobial activity)”, for which the “Target(s) (microorganism bound by the targeting peptide)” value was “S. mutans”.
On to “PF-800 (WYYFDNNGYM; Peptide with targeting and/or antimicrobial activity)”, for which the “Target(s) (microorganism bound by the targeting peptide)” value is reported as “S. mutans”.
Consider “PF-C003 (FCSVDHDVITIAADHVKQGAEA; Peptide with targeting and/or antimicrobial activity)”, for which the “Target(s) (microorganism bound by the targeting peptide)” value is recorded as “A. naeslundii; also recorded: P. gingivalis; also recorded: S. mutans”.
Same read-out and setting: with “PF-C008 (AQPRRTWLVNFGEVPSPGLTNDGMPDH; Peptide with targeting and/or antimicrobial activity)” the entry was “A. naeslundii”.
With “PF-C034 (HPMPITVRSRKPGPLTAPSEH; Peptide with targeting and/or antimicrobial activity)”, the “Target(s) (microorganism bound by the targeting peptide)” value is “S. mutans; also recorded: E. coli”.
The same measure, in the same setting: the entry for “PF-C045 (FREGMGWPLSNEGSPTAPLPKHRNQV; Peptide with targeting and/or antimicrobial activity)” is “A. naeslundii; also recorded: T. denticola”.
The same measure, in the same setting: the entry for “PF-C050 (QGLARPVLRRIPL; Peptide with targeting and/or antimicrobial activity)” is “A. naeslundii; also recorded: S. mutans”; for “PF-C063 (SHFRKGD; Peptide with targeting and/or antimicrobial activity)” it is “A. naeslundii; also recorded: F. nucleatum; also recorded: S. mutans”.
On the same count and under the same terms, with “PF-C068 (LNLFASI; Peptide with targeting and/or antimicrobial activity)” the entry was “A. naeslundii; also recorded: F. nucleatum; also recorded: S. mutans”; with “PF-C080 (INIPGLF; Peptide with targeting and/or antimicrobial activity)”, “A. naeslundii; also recorded: F. nucleatum; also recorded: S. mutans”; with “PF-C093 (EKLGTMV; Peptide with targeting and/or antimicrobial activity)”, “A. naeslundii; also recorded: F. nucleatum; also recorded: S. mutans”.
For the substance “PF-C134 (NELMKYPATLTATATTPGIKYSHLCSVCL; Peptide with targeting and/or antimicrobial activity)”, the “Target(s) (microorganism bound by the targeting peptide)” value is given as “A. naeslundii; also recorded: F. nucleatum; also recorded: P. gingivalis; also recorded: S. mutans; also recorded: T. denticola”.
On the same count and under the same terms, with “PF-C160 (AASGFTYCASNGVWHPY; Peptide with targeting and/or antimicrobial activity)” the entry was “F. nucleatum”; with “PF-C259 (AEIQPHCLSVL; Peptide with targeting and/or antimicrobial activity)”, “F. nucleatum; also recorded: S. mutans”.
Regarding “PF-C271 (FFPSYYSIIITYF; Peptide with targeting and/or antimicrobial activity)”, the “Target(s) (microorganism bound by the targeting peptide)” value was “A. naeslundii; also recorded: F. nucleatum; also recorded: P. gingivalis; also recorded: S. mutans; also recorded: T. denticola”.
Consider “PF-C273 (KNMLKRRMKQKRLFDEEDRLRVLSKYTKSYY; Peptide with targeting and/or antimicrobial activity)”, for which the “Target(s) (microorganism bound by the targeting peptide)” value is recorded as “A. naeslundii; also recorded: P. gingivalis; also recorded: S. mutans; also recorded: T. denticola”.
Still for that read-out and setting: the entry for “PF-C285 (FTIIELKKQKIKHGENNKKTAHPLNEPFCARA; Peptide with targeting and/or antimicrobial activity)” is “A. naeslundii; also recorded: F. nucleatum; also recorded: P. gingivalis; also recorded: S. mutans; also recorded: T. denticola”; for “PF-S004 (VLLNIFRTLLEFFSPSNAPGAEDVPLPDTQA; Peptide with targeting and/or antimicrobial activity)” it is “S. epidermidis and MRSA and C. jeikeium”.
Take “PF-S007 (VVAGVVLLTALAVGSKRKEKKQIKEIQRLLAATR; Peptide with targeting and/or antimicrobial activity)”: the “Target(s) (microorganism bound by the targeting peptide)” value is “S. epidermidis and MRSA”.
The same measure, in the same setting: the entry for “PF-S015 (IENLERGARRPP; Peptide with targeting and/or antimicrobial activity)” is “S. epidermidis and MRSA and C. jeikeium”; for “PF-S018 (GMPQIPRLRI; Peptide with targeting and/or antimicrobial activity)” it is “S. epidermidis and M. luteus and C. albicans and MRSA and E. faecalis and C. jeikeium and C. jejuni”; for “PF-S023 (MAEDERRALKRRTNRGRTRTRKRITV; Peptide with targeting and/or antimicrobial activity)” it is “S. epidermidis and MRSA”.
Same read-out and setting: the entry for “PF-S026 (TELKYNGEEYLLLTQRDILAVIEK; Peptide with targeting and/or antimicrobial activity)” is “S. epidermidis and MRSA and C. jeikeium”.
On the same count and under the same terms, the entry for “PF-S029 (TSDTQSQSPWLFDNADIVNIYPVQLMHSSDND; Peptide with targeting and/or antimicrobial activity)” is “M. luteus; also recorded: P. mirabilis; also recorded: E. coli; also recorded: C. albicans; also recorded: C. jeikeium; also recorded: C. jejuni”.
